Results on twelve molecules are retold here after article PMC7827382, “Sterols and Triterpenes from Dobera glabra Growing in Saudi Arabia and Their Cytotoxic Activity” (Plants, 2021).

The subject of assay [1] is colorectal cancer cell (HCT-116). The experiment in a line: Cytotoxic activity, MTT assay, HCT-116. Particulars: for IC50: Homo sapiens, HCT-116, 48 h, read-out: HCT-116 IC50. In kind it is cell-based, human.
Assay [2] deals with prostate carcinoma cells (PC-3). Kind of assay: Cytotoxic activity, MTT assay, PC-3. In kind it is cell-based, human. Particulars: for IC50: Homo sapiens, 48 h, read-out: PC-3 IC50.
Assay [3] deals with hepatocellular carcinoma cells (HepG-2). Kind of assay: Cytotoxic activity, MTT assay, HepG-2. Format: cell-based, human. Particulars: for IC50: Homo sapiens, HepG2, 48 h, read-out: HepG-2 IC50. On the technique in general: Tetrazolium assays rely on reduction of a dye to a coloured formazan, in cell work by metabolically active cells.
Assay [4] has as its system African green monkey kidney cell line (Vero-B). Kind of assay: Cytotoxic activity, MTT assay, normal Vero-B cells. Format: cell-based. The note with it: for IC50: Chlorocebus sabaeus, Vero B, read-out: VERO-B IC50.
The subject of assay [5] is HCT-116, PC-3, and HepG-2. Kind of assay: Antitumor activity against cancer cell lines, summary in words. Format: cell-based, human. Particulars: HCT-116, PC-3 and HepG-2 cell lines.
The next assay concerns the target phosphodiesterase I (Crotalus adamanteus, UniProt J3SEZ3). Kind of assay: biochemical. On the set-up: species or system snake.
In a further assay the test system is Vero cell line. The experiment in a line: Wound-healing assay. Particulars: 35 or 70 µM; up to 48 h. Format: cell-based, African green monkey.
[6] abbreviates: MTT, 48 h incubation, ± SD of three experiments.
[7] abbreviates: normal cells, MTT, 48 h incubation, ± SD of three experiments.

Converted amounts (≈) assume the structure as drawn. “Also recorded” adds a separate entry of the source. Read-outs that look alike come from different tables or passages of the source.

phosphodiesterase I, sequence (J3SEZ3 24-851 limits assumed): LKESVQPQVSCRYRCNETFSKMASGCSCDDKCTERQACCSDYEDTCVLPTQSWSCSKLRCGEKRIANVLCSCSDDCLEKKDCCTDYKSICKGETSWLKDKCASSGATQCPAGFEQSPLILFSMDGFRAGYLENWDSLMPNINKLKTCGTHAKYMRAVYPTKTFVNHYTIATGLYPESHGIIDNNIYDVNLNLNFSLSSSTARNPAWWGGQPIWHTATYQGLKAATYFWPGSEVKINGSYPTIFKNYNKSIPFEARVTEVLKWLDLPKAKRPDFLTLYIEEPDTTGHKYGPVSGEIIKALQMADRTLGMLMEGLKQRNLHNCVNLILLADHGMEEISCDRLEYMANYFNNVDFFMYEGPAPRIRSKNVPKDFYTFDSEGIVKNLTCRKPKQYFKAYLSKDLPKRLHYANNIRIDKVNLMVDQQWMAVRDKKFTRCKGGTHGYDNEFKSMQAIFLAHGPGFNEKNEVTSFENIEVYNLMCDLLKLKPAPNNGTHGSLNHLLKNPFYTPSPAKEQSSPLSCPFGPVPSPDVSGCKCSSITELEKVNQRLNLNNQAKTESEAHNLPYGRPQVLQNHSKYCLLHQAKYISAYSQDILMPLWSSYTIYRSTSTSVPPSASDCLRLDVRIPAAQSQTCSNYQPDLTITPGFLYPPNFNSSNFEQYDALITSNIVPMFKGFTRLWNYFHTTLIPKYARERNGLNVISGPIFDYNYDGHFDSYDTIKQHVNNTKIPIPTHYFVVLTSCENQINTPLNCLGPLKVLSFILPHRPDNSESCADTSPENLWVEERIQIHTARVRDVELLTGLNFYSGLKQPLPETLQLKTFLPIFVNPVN

For the molecule `N.N.[Cl][Pt][Cl]` [Cisplatin, cis-diamineplatinum (II) dichloride, reference compound], the “HCT-116 IC50” value in assay [1] (setting [6]) is given as 12.6 ± 2 µg/mL. Further, the “PC-3 IC50” value in assay [2] (setting [6]) is recorded as 5 ± 0.45 µg/mL. In addition, the “HepG-2 IC50” value in assay [3] (setting [6]) was 5 ± 1.5 µg/mL. For the same molecule, the “VERO-B IC50” value in assay [4] (setting [7]) is reported as 11 ± 1.3 µg/mL.

With `C=C(C)[C@@H]1CC[C@]2(C)CC[C@]3(C)[C@H](CC[C@@H]4[C@@]5(C)CC[C@H](O)C(C)(C)[C@@H]5CC[C@]43C)[C@@H]12` [Compound 1, lupeol], the IC50 in assay [1] (setting [6]), in assay [2] (setting [6]), in assay [3] (setting [6]) and in assay [4] (setting [7]) was greater than 100 µg/mL in each case.

On to `CC(=O)[C@@H]1CC[C@]2(C)CC[C@]3(C)[C@H](CC[C@@H]4[C@@]5(C)CC[C@H](O)C(C)(C)[C@@H]5CC[C@]43C)[C@@H]12` [Compound 2, 30-norlup-3β-ol-20-one], for which the IC50 in assay [1] (setting [6]), in assay [2] (setting [6]), in assay [3] (setting [6]) and in assay [4] (setting [7]) was greater than 100 µg/mL each time.

With `C=C(C)[C@@H]1CC[C@]2(C)CC[C@]3(C)[C@@H](CC[C@@H]4[C@@]5(C)C=CC(=O)C(C)(C)[C@@H]5CC[C@]43C)[C@@H]12` [Compound 3, ∆^1-lupenone], the IC50 in assay [1] (setting [6]), in assay [2] (setting [6]), in assay [3] (setting [6]) and in assay [4] (setting [7]) was greater than 100 µg/mL in each case.

With `C=C(CO)[C@@H]1CC[C@]2(C)CC[C@]3(C)[C@H](CC[C@@H]4[C@@]5(C)CC[C@H](O)C(C)(C)[C@@H]5CC[C@]43C)[C@@H]12` [Compound 4, lup-20(29)-ene-3β,30-diol], the IC50 in assay [1] (setting [6]), in assay [2] (setting [6]), in assay [3] (setting [6]) and in assay [4] (setting [7]) was greater than 100 µg/mL each time.

As to `C=C(C)[C@@H]1CC[C@]2(C)CC[C@]3(C)[C@H](CC[C@@H]4[C@@]5(C)CCC(OC(=O)/C=C/c6ccc(O)c(O)c6)C(C)(C)[C@@H]5CC[C@]43C)[C@@H]12` (some centres unmarked) [Compound 5, lupeol caffeate], the IC50 worked out at 59 ± 0.45 µg/mL (≈ 100 µM) in assay [1] (setting [6]), 59 ± 0.45 µg/mL (≈ 100 µM) in assay [2] (setting [6]), 59 ± 0.45 µg/mL (≈ 100 µM) in assay [3] (setting [6]) and 81 ± 1.1 µg/mL (≈ 138 µM) in assay [4] (setting [7]).

As for `C=C(CO)[C@@H]1CC[C@]2(C)CC[C@]3(C)[C@H](CC[C@@H]4[C@@]5(C)CCC(OC(=O)/C=C/c6ccc(O)c(O)c6)C(C)(C)[C@@H]5CC[C@]43C)[C@@H]12` (stereo partly drawn) [Compound 6, 30-hydroxy lup-20(29)-ene 3β-caffeate], the IC50 was 68 ± 1.72 µg/mL (≈ 112 µM) in assay [1] (setting [6]), 68 ± 1.72 µg/mL (≈ 112 µM) in assay [2] (setting [6]), 68 ± 1.72 µg/mL (≈ 112 µM) in assay [3] (setting [6]) and 68 ± 0.3 µg/mL (≈ 112 µM) in assay [4] (setting [7]).

Consider `C=C(C=O)C1CCC2(C)CCC3(C)C(CCC4C5(C)CCC(OC(=O)C=Cc6ccc(O)c(O)c6)C(C)(C)C5CCC43C)C12` (stereo not drawn) [Compound 7, lup-20(29)-ene 3β-caffeate-30-al], for which the half-maximal inhibitory concentration (IC50) in assay [1] (setting [6]) was 62 ± 1.42 µg/mL (≈ 103 µM); in assay [2] (setting [6]), 62 ± 1.42 µg/mL (≈ 103 µM); in assay [3] (setting [6]) it was 62 ± 1.42 µg/mL (≈ 103 µM); in assay [4] (setting [7]) it was greater than 100 µg/mL.

In the case of `CC[C@H](CC[C@@H](C)[C@H]1CC[C@H]2[C@@H]3CC=C4C[C@@H](O)CC[C@]4(C)[C@H]3CC[C@]12C)C(C)C` [Compound 9, β-sitosterol], the IC50 in assay [1], in assay [2], in assay [3] and in assay [4] (48 h) was greater than 100 µg/mL in each case. The “antitumor activity (in words)” value in assay [5] was “no activity”.

For the molecule `CC[C@H](CC[C@@H](C)C1CCC2C3C(O)C=C4C[C@@H](O)CC[C@]4(C)C3CC[C@@]21C)C(C)C` (stereo partly drawn) [Compound 11, 7α-hydroxy-β-sitosterol], the 50% inhibitory concentration (IC50) is roughly 8 µg/mL (≈ 18.6 µM) in assay [1] (setting [6]), roughly 8 µg/mL (≈ 18.6 µM) in assay [2] (setting [6]), roughly 8 µg/mL (≈ 18.6 µM) in assay [3] (setting [6]) and 70 ± 0.5 µg/mL (≈ 163 µM) in assay [4] (setting [7]). The inhibition at 2 µM at phosphodiesterase I (read-out: phosphodiesterase I enzyme inhibition) was determined as 80.2%. Also, the “wound healing of normal cells” value with Vero cell line is recorded as “able to heal the wound at a rate closer to that observed for untreated cells; also recorded: wound size decreased”. Also, in assay [5], the “antitumor activity (in words)” value is “broad-spectrum activity”.

For the molecule `CC[C@H](CC[C@@H](C)C1CCC2C3C(=O)C=C4C[C@@H](O)CC[C@]4(C)C3CC[C@@]21C)C(C)C` (stereo partly drawn) [Compound 13, 7-keto-β-sitosterol], the IC50 was 22.3 ± 0.24 µg/mL (≈ 52 µM) in assay [1] (setting [6]), 22.3 ± 0.24 µg/mL (≈ 52 µM) in assay [2] (setting [6]), 22.3 ± 0.24 µg/mL (≈ 52 µM) in assay [3] (setting [6]) and 64 ± 1.1 µg/mL (≈ 149 µM) in assay [4] (setting [7]). Further, the “antitumor activity (in words)” value in assay [5] is listed as “moderate activity”.

For the molecule `O=C(O)CN(CCN(CC(=O)O)CC(=O)O)CC(=O)O` [EDTA, reference compound], the half-maximal inhibitory concentration (IC50) at phosphodiesterase I (positive control, read-out: IC50 ± SD, phosphodiesterase I) was 274 ± 0.007 µM.

What is called IC50 is the concentration at which inhibition is half-maximal. A word on the inhibition: it is the relative decrease from the control value, in per cent.
